The NIST ThermoML archive (doi:10.1016/j.jct.2014.05.013)
± gives the expanded uncertainty stated by the source. Each block holds one compound with its values, some of them ahead of it.

Tests used:
[1] = wn = mass fraction of the nth substance listed; settings: 100 kPa, Liquid, Vibrating tube method
[2] = refractive index (Na D-line) (dimensionless); wn = mass fraction of the nth substance listed; settings: 100 kPa, Liquid, Standard Abbe refractometry
[3] = 100 kPa, Liquid, Vibrating tube method

Structure (SMILES): [Cl-].[Cs+] [cesium chloride] + O
- mass density ([1]; 288.15 K, w1 = 0.646): 1894.15 ± 1.5 kg/m3
- mass density ([1]; 298.15 K, w1 = 0.6545): 1921.87 ± 1.5 kg/m3
- mass density ([1]; 308.15 K, w1 = 0.6666): 1947.03 ± 1.6 kg/m3
- refractive index ([2]; 288.15 K, w1 = 0.646): 1.41803 ± 0.00032
- refractive index ([2]; 298.15 K, w1 = 0.6545): 1.41971 ± 0.00032
- refractive index ([2]; 308.15 K, w1 = 0.6666): 1.42086 ± 0.00032

Structure (SMILES): [Cl-].[Cs+] [cesium chloride] + CN(C)C=O
- mass density ([1]; 288.15 K, w1 = 0.0005): 961.27 ± 1 kg/m3
- mass density ([1]; 298.15 K, w1 = 0.0008): 944.51 ± 1 kg/m3
- mass density ([1]; 308.15 K, w1 = 0.0016): 937.54 ± 1 kg/m3
- refractive index ([2]; 288.15 K, w1 = 0.0005): 1.43298 ± 0.00032
- refractive index ([2]; 298.15 K, w1 = 0.0008): 1.4292 ± 0.00032
- refractive index ([2]; 308.15 K, w1 = 0.0016): 1.42658 ± 0.00032

Structure (SMILES): CN(C)C=O [dimethylformamide] + O
- mass density ([1]; 288.15 K, w1 = 0.2): 1000.62 ± 1 kg/m3
- mass density ([1]; 288.15 K, w1 = 0.4): 1003.56 ± 1 kg/m3
- mass density ([1]; 288.15 K, w1 = 0.6): 1001.34 ± 1 kg/m3
- mass density ([1]; 288.15 K, w1 = 0.8): 986.63 ± 1 kg/m3
- mass density ([1]; 288.15 K, w1 = 1): 953.53 ± 1 kg/m3
- mass density ([1]; 298.15 K, w1 = 0.2): 996.32 ± 1 kg/m3
- mass density ([1]; 298.15 K, w1 = 0.4): 996.99 ± 1 kg/m3
- mass density ([1]; 298.15 K, w1 = 0.6): 992.97 ± 1 kg/m3
- mass density ([1]; 298.15 K, w1 = 0.8): 977.38 ± 1 kg/m3
- mass density ([1]; 298.15 K, w1 = 1): 943.89 ± 1 kg/m3
- mass density ([1]; 308.15 K, w1 = 0.2): 991.45 ± 1 kg/m3
- mass density ([1]; 308.15 K, w1 = 0.4): 990 ± 1 kg/m3
- mass density ([1]; 308.15 K, w1 = 0.6): 984.33 ± 1 kg/m3
- mass density ([1]; 308.15 K, w1 = 0.8): 968.07 ± 1 kg/m3
- mass density ([1]; 308.15 K, w1 = 1): 934.39 ± 1 kg/m3

Structure (SMILES): CNC=O [N-methylformamide]
- mass density ([3]; 288.15 K): 1007.94 ± 1 kg/m3
- mass density ([3]; 298.15 K): 999.25 ± 1 kg/m3
- mass density ([3]; 308.15 K): 990.63 ± 1 kg/m3

Structure (SMILES): [Cl-].[Cs+] [cesium chloride] + CNC=O
- mass density ([1]; 288.15 K, w1 = 0.0585): 1054.35 ± 1.2 kg/m3
- mass density ([1]; 298.15 K, w1 = 0.0599): 1046.14 ± 1.2 kg/m3
- mass density ([1]; 308.15 K, w1 = 0.062): 1038.58 ± 1.2 kg/m3
- refractive index ([2]; 288.15 K, w1 = 0.0585): 1.43767 ± 0.00032
- refractive index ([2]; 298.15 K, w1 = 0.0599): 1.43465 ± 0.00032
- refractive index ([2]; 308.15 K, w1 = 0.062): 1.43161 ± 0.00032

Structure (SMILES): NC=O [formamide] + O
- mass density ([1]; 288.15 K, w1 = 0.2): 1030.04 ± 1 kg/m3
- mass density ([1]; 288.15 K, w1 = 0.4): 1058.41 ± 1 kg/m3
- mass density ([1]; 288.15 K, w1 = 0.6): 1085.67 ± 1 kg/m3
- mass density ([1]; 288.15 K, w1 = 0.8): 1111.83 ± 1 kg/m3
- mass density ([1]; 288.15 K, w1 = 1): 1137.8 ± 1 kg/m3
- mass density ([1]; 298.15 K, w1 = 0.2): 1025.59 ± 1 kg/m3
- mass density ([1]; 298.15 K, w1 = 0.4): 1052.51 ± 1 kg/m3
- mass density ([1]; 298.15 K, w1 = 0.6): 1078.6 ± 1 kg/m3
- mass density ([1]; 298.15 K, w1 = 0.8): 1103.81 ± 1 kg/m3
- mass density ([1]; 298.15 K, w1 = 1): 1129.18 ± 1 kg/m3
- mass density ([1]; 308.15 K, w1 = 0.2): 1020.7 ± 1 kg/m3
- mass density ([1]; 308.15 K, w1 = 0.4): 1046.35 ± 1 kg/m3
- mass density ([1]; 308.15 K, w1 = 0.6): 1071.43 ± 1 kg/m3
- mass density ([1]; 308.15 K, w1 = 0.8): 1095.93 ± 1 kg/m3
- mass density ([1]; 308.15 K, w1 = 1): 1120.75 ± 1 kg/m3

The next lines start with the values.

- mass density ([1]; 288.15 K, w2 = 0): 999 ± 1 kg/m3
Structure (SMILES): O [water] + NC=O

- mass density ([1]; 288.15 K, w2 = 0): 999 ± 1 kg/m3
Structure (SMILES): O [water] + CN(C)C=O

- mass density ([3]; 288.15 K): 999 ± 1 kg/m3
Structure (SMILES): O [water]

- mass density ([3]; 288.15 K): 953.53 ± 1 kg/m3
- mass density ([3]; 298.15 K): 943.89 ± 1 kg/m3
- mass density ([3]; 308.15 K): 934.39 ± 1 kg/m3
Structure (SMILES): CN(C)C=O [dimethylformamide]

- mass density ([1]; 288.15 K, w2 = 0): 999 ± 1 kg/m3
Structure (SMILES): O [water] + CNC=O

- mass density ([3]; 288.15 K): 1137.8 ± 1 kg/m3
- mass density ([3]; 298.15 K): 1129.18 ± 1 kg/m3
- mass density ([3]; 308.15 K): 1120.75 ± 1 kg/m3
Structure (SMILES): NC=O [formamide]

- mass density ([1]; 288.15 K, w1 = 0.2): 1010.26 ± 1 kg/m3
- mass density ([1]; 288.15 K, w1 = 0.4): 1019.56 ± 1 kg/m3
- mass density ([1]; 288.15 K, w1 = 0.6): 1023.57 ± 1 kg/m3
- mass density ([1]; 288.15 K, w1 = 0.8): 1019.32 ± 1 kg/m3
- mass density ([1]; 288.15 K, w1 = 1): 1007.94 ± 1 kg/m3
- mass density ([1]; 298.15 K, w1 = 0.2): 1006.21 ± 1 kg/m3
- mass density ([1]; 298.15 K, w1 = 0.4): 1013.7 ± 1 kg/m3
- mass density ([1]; 298.15 K, w1 = 0.6): 1016.29 ± 1 kg/m3
- mass density ([1]; 298.15 K, w1 = 0.8): 1011.11 ± 1 kg/m3
- mass density ([1]; 298.15 K, w1 = 1): 999.25 ± 1 kg/m3
- mass density ([1]; 308.15 K, w1 = 0.2): 1001.56 ± 1 kg/m3
- mass density ([1]; 308.15 K, w1 = 0.4): 1007.51 ± 1 kg/m3
- mass density ([1]; 308.15 K, w1 = 0.6): 1008.9 ± 1 kg/m3
- mass density ([1]; 308.15 K, w1 = 0.8): 1003.04 ± 1 kg/m3
- mass density ([1]; 308.15 K, w1 = 1): 990.63 ± 1 kg/m3
Structure (SMILES): CNC=O [N-methylformamide] + O

- mass density ([1]; 288.15 K, w1 = 0.2292): 1359.39 ± 1.3 kg/m3
- mass density ([1]; 298.15 K, w1 = 0.2331): 1354.37 ± 1.3 kg/m3
- mass density ([1]; 308.15 K, w1 = 0.2412): 1354.14 ± 1.3 kg/m3
- refractive index ([2]; 288.15 K, w1 = 0.2292): 1.46286 ± 0.00032
- refractive index ([2]; 298.15 K, w1 = 0.2331): 1.46096 ± 0.00032
- refractive index ([2]; 308.15 K, w1 = 0.2412): 1.45811 ± 0.00032
Structure (SMILES): [Cl-].[Cs+] [cesium chloride] + NC=O
